Measured values as given in ChEMBL document CHEMBL1201862, “PubChem BioAssay data set” (2004).
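Each compound was tested at five concentrations against cells in 96-well plates for 48 hours. Abbreviation: GI50, concentration required for 50% inhibition of growth.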 Active and inactive are the calls of the source. No stated cut-off is given here; in the data, active = GI50 up to about 1.1 µM and inactive = higher.

Experiments:
Experiment in all cases: NCI anticancer screen, dose series, 48 h
[1] = tested on: UACC-62
[2] = tested on: OVCAR-3
[3] = tested on: UO-31
[4] = tested on: SF-539
[5] = tested on: SNB-75
[6] = tested on: LOX IMVI
[7] = tested on: SK-MEL-28
[8] = tested on: SNB-19
[9] = tested on: M14
[10] = tested on: SK-MEL-5
[11] = tested on: NCI-H460
[12] = tested on: COLO 205
[13] = tested on: HT-29
[14] = tested on: RXF 393
[15] = tested on: K562
[16] = tested on: SK-MEL-2
[17] = tested on: U-251

Compound | GI50 [1] | GI50 [2] | GI50 [3] | GI50 [4] | GI50 [5] | GI50 [6] | GI50 [7] | GI50 [8] | GI50 [9] | GI50 [10] | GI50 [11] | GI50 [12] | GI50 [13] | GI50 [14] | GI50 [15] | GI50 [16] | GI50 [17]
O=C(Nc1nnc(S)[nH]1)C(=O)C1C(=O)Nc2ccccc2[S+]1[O-] (stereo unspecified) | > 100 µM (inactive) | > 100 µM (inactive) | > 100 µM (inactive) | > 100 µM (inactive) | > 100 µM (inactive) | > 100 µM (inactive) | > 100 µM (inactive) | > 100 µM (inactive) | > 100 µM (inactive) | > 100 µM (inactive) | > 100 µM (inactive) | > 100 µM (inactive) | > 100 µM (inactive) | – | – | – | –
O=C1N=C2Sc3ccc4ccccc4c3N2C1=O | 40.5 µM (inactive) | 18 µM (inactive) | 16 µM (inactive) | 18.8 µM (inactive) | 23.6 µM (inactive) | 19.2 µM (inactive) | 27 µM (inactive) | 20.4 µM (inactive) | 26.1 µM (inactive) | 22.4 µM (inactive) | 25.1 µM (inactive) | 29.6 µM (inactive) | 32.7 µM (inactive) | 20.2 µM (inactive) | 33 µM (inactive) | 26.4 µM (inactive) | 20.5 µM (inactive)
CC1(C)COC(C23C4C5C2C2C3C4C52I)=N1 (stereo unspecified) | > 100 µM (inactive) | > 100 µM (inactive) | > 100 µM (inactive) | > 100 µM (inactive) | – | – | > 100 µM (inactive) | > 100 µM (inactive) | > 100 µM (inactive) | > 100 µM (inactive) | > 100 µM (inactive) | > 100 µM (inactive) | > 100 µM (inactive) | > 100 µM (inactive) | > 100 µM (inactive) | – | > 100 µM (inactive)
CCOC(=O)C1C(=O)c2cccc(OC)c2C2COC(=O)N12 (stereo unspecified) | > 100 µM (inactive) | > 100 µM (inactive) | > 100 µM (inactive) | > 100 µM (inactive) | > 100 µM (inactive) | > 100 µM (inactive) | > 100 µM (inactive) | > 100 µM (inactive) | > 100 µM (inactive) | > 100 µM (inactive) | > 100 µM (inactive) | > 100 µM (inactive) | > 100 µM (inactive) | > 100 µM (inactive) | > 100 µM (inactive) | > 100 µM (inactive) | > 100 µM (inactive)
c1ccc(SC(CCCCC(Sc2ccccc2)Sc2ccccc2)Sc2ccccc2)cc1 | > 100 µM (inactive) | > 100 µM (inactive) | > 100 µM (inactive) | > 100 µM (inactive) | > 100 µM (inactive) | > 100 µM (inactive) | > 100 µM (inactive) | > 100 µM (inactive) | > 100 µM (inactive) | > 100 µM (inactive) | > 100 µM (inactive) | > 100 µM (inactive) | – | > 100 µM (inactive) | > 100 µM (inactive) | > 100 µM (inactive) | > 100 µM (inactive)
O=c1[nH]nc(-c2ccccc2)c(-c2ccccc2)c1-n1nc(-c2ccccc2)c2ccccc2c1=O | > 100 µM (inactive) | 51.5 µM (inactive) | 71.8 µM (inactive) | > 100 µM (inactive) | > 100 µM (inactive) | – | > 100 µM (inactive) | – | > 100 µM (inactive) | > 100 µM (inactive) | 90.6 µM (inactive) | 34.6 µM (inactive) | 68.5 µM (inactive) | – | 27.9 µM (inactive) | 69 µM (inactive) | 50.8 µM (inactive)
Cc1ccc(NC(=O)C(=O)C(C(=O)/C=C/c2ccccc2)C2OC(=O)c3ccccc32)c(C)c1 (stereo unspecified) | > 100 µM (inactive) | > 100 µM (inactive) | > 100 µM (inactive) | > 100 µM (inactive) | > 100 µM (inactive) | > 100 µM (inactive) | > 100 µM (inactive) | > 100 µM (inactive) | > 100 µM (inactive) | > 100 µM (inactive) | > 100 µM (inactive) | > 100 µM (inactive) | > 100 µM (inactive) | > 100 µM (inactive) | 85.7 µM (inactive) | – | > 100 µM (inactive)
COc1cc2c(c(OC)c1OC)-c1ccc(SC)c(=O)cc1[C@@H](NCc1cccc([N+](=O)[O-])c1)CC2 | < 0.01 µM (active) | < 0.01 µM (active) | 0.0366 µM (active) | < 0.01 µM (active) | 11.1 µM (inactive) | < 0.01 µM (active) | – | < 0.01 µM (active) | < 0.01 µM (active) | < 0.01 µM (active) | < 0.01 µM (active) | < 0.01 µM (active) | < 0.01 µM (active) | < 0.01 µM (active) | < 0.01 µM (active) | < 0.01 µM (active) | < 0.01 µM (active)
COc1ccc2oc(-c3ccc(OC)c(OC)c3OC)cc(=O)c2c1 | 55.2 µM (inactive) | 34.7 µM (inactive) | – | 31.2 µM (inactive) | 48.3 µM (inactive) | 46.8 µM (inactive) | 62.2 µM (inactive) | 18.9 µM (inactive) | 55.3 µM (inactive) | – | – | 52 µM (inactive) | 48.2 µM (inactive) | 22.4 µM (inactive) | 40.6 µM (inactive) | 22.9 µM (inactive) | –
